TGI and GI50 data for 15 compounds are collected here from PubChem BioAssay (NCI).

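Values below derive from 48-hour exposures of cells grown in 96-well plates, with endpoints linearly interpolated between the two concentrations bracketing the appropriate inhibition level. GI50 = concentration required for 50% inhibition of growth. The concentration for full growth arrest is given as TGI.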 Bounds are passed on as bounds.

What all share (assay): NCI anticancer screen, dose series, 48 h
For experiment [1], the system named is NCI-H460 lung.
The test system of experiment [2] is M14 melanoma.
The subject of experiment [3] is KM12 colon.
Experiment [4] deals with SNB-19 CNS.
Experiment [5] relates to LOX IMVI melanoma.
Experiment [6] relates to HL-60(TB) leukemia.
The test system of experiment [7] is SNB-75 CNS.
Experiment [8] has as its system HT29 colon.
The subject of experiment [9] is CCRF-CEM leukemia.
Experiment [10] relates to HOP-92 NSCLC.

On to `CCN1CCCn2c(=O)[nH]c3cc(Br)cc1c32`, for which the TGI in [1], in experiment [2], in experiment [3], in experiment [4], in experiment [5] and in experiment [6] was more than 100 µM each time. The TGI in experiment [7] is 43.2 µM; in [8] it was more than 100 µM; in [9] it was more than 100 µM.

Take `O=[N+]([O-])c1ccc2nc(/C=C(\O)c3ccc(Cl)cc3)c(/C=C(\O)c3ccc(Cl)cc3)nc2c1`: the TGI in [1], in experiment [2], in experiment [3], in [4], in experiment [7] and in experiment [8] was more than 100 µM throughout. The TGI in experiment [9] was more than 100 µM.

Regarding `Cc1cc2nc(-c3c(N)ncc(C#N)c3-c3ccc(Cl)cc3)[nH]c2cc1C`, the GI50 in experiment [1] is 30.4 µM; in [10], 0.275 µM; in experiment [3], 14.8 µM; in experiment [4], 19.5 µM; in experiment [5], 5.83 µM; in experiment [7] it was 12.9 µM. Moreover, the GI50 in [8] is 6.06 µM; in experiment [9], 24.6 µM. Further, the TGI in experiment [1] was more than 100 µM; in [10], 5.23 µM; in experiment [3] it was more than 100 µM; in experiment [4], 75.6 µM; in experiment [5], 26 µM; in experiment [7], 32.4 µM. Besides, the TGI in experiment [8] and in [9] was more than 100 µM each time.

For the compound `C=CCOC1(CC=C)C(=O)OC2C(O)COC21O` (stereo unspecified), the TGI in experiment [1], in [2], in experiment [3], in experiment [4], in experiment [5] and in experiment [6] was more than 100 µM in each case. Further, the TGI in experiment [8] and in [9] was more than 100 µM throughout.

Turning to `O=c1nc2ccc3sc4ccccc4c(=O)c3n2c(=O)[nH]1`, the TGI in experiment [1], in experiment [3], in [4], in [5], in [6] and in [7] was more than 100 µM in each case. In addition, the TGI in experiment [8] and in experiment [9] was more than 100 µM in each case.

On to `CC(=Nc1cc(Cl)cc(Cl)c1)c1ccncc1`, for which the TGI in [1], in experiment [2], in [10], in [3], in [4] and in [5] was more than 100 µM throughout. Moreover, the TGI in [7], in experiment [8] and in [9] was more than 100 µM each time.

For the compound `CC(C#N)N(CCc1ccccc1)C(=O)c1ccccc1` (stereo unspecified), the TGI in [2], in experiment [3], in experiment [4], in experiment [5], in [6] and in experiment [7] was more than 100 µM each time. The TGI in experiment [8] and in experiment [9] was more than 100 µM each time.

With `N#C/C(=C1/c2cc([N+](=O)[O-])ccc2-c2c1cc([N+](=O)[O-])cc2[N+](=O)[O-])N1CCCCC1`, the TGI in experiment [2] was more than 100 µM; in experiment [3] it was more than 100 µM; in [4] it was more than 100 µM; in experiment [7], 41.2 µM; in experiment [8] it was more than 100 µM; in experiment [9], more than 100 µM.

For `COc1cccc(C23CCCC(C2)N(C)CC3OC(=O)c2ccccc2)c1OC` (stereo unspecified), the TGI in [1] is more than 100 µM; in [2] it was 29.6 µM; in experiment [3] it was 61.3 µM; in [4], more than 100 µM; in [5], 45.2 µM; in [6], 28.3 µM. The TGI in [8] was 43.3 µM; in experiment [9] it was 25 µM.

`N#Cc1c(N2CCN(c3ccc([N+](=O)[O-])cc3)CC2)[n+](=O)c2ccc(-c3ccc([N+](=O)[O-])cc3)cc2n1[O-]`: the TGI in [1] was more than 38.3 µM; in [2], more than 58.9 µM; in experiment [10] it was more than 83.9 µM; in [3], more than 100 µM; in experiment [4], more than 100 µM; in experiment [5], more than 100 µM. For the same compound, the TGI in experiment [7], in experiment [8] and in experiment [9] was more than 100 µM throughout.

`C=CCc1ccccc1C1CC2(C(=O)OC)OC1C(C(=O)OC)=C2C(=O)OC` (stereo unspecified): the TGI in [1], in [2], in [3], in [4], in [5] and in [6] was more than 10 µM each time. Besides, the TGI in experiment [8] and in experiment [9] was more than 10 µM in each case.

Regarding `CC(=O)O[C@H]1CCC2[C@@H]3CCC4NC(=O)C(C#N)C[C@]4(C)C3CC[C@@]21C` (stereo partly specified), the TGI in experiment [1], in [2], in experiment [10], in [3], in [4] and in [5] was more than 10 µM each time. The TGI in experiment [6], in experiment [8] and in experiment [9] was more than 10 µM throughout.

As to `Cc1ccc(/C=N\NC(=O)c2ccncc2)s1`, the TGI in experiment [1], in experiment [2], in experiment [10], in experiment [3], in experiment [4] and in experiment [6] was more than 100 µM each time. Further, the TGI in experiment [8] and in [9] was more than 100 µM each time.

With `CCN(CC)/[N+]([O-])=N/O`, the TGI in experiment [1], in experiment [2], in [10], in experiment [3], in [4] and in experiment [5] was more than 100 µM throughout. Also, the TGI in [6], in experiment [8] and in [9] was more than 100 µM throughout.

With `COC(=O)[C@@H]1C=C[C@H](NC(C)=O)C1`, the TGI in experiment [1], in experiment [2], in [10], in experiment [3], in [4] and in experiment [5] was more than 100 µM in each case. In addition, the TGI in experiment [7], in experiment [8] and in [9] was more than 100 µM in each case.
